According to EPA's ToxRefDB 2:

How the values were obtained:
rat [1] = conditions: Subchronic oral toxicity in rodents, sprague dawley, Water, dose end: 90 day, group: systemic
rat [2] = conditions: Combined chronic toxicity/carcinogenicity, sprague dawley, Oral, Feed, dose end: 2 year, group: systemic
dog [3] = conditions: Chronic toxicity, beagle, Oral, Feed, dose end: 52 week, group: systemic
dog [4] = conditions: Subchronic oral toxicity in nonrodent, beagle, Capsule, dose end: 90 day, group: systemic, systemic / clinical chemistry / alkaline phosphatase (alp/alk) / alkaline phosphatase (alp/alk) + systemic / pathology microscopic / liver…
rat [5] = conditions: Multigenerational reproductive toxicity study, CRL:CD BR/VAF/PLUS, Oral, Feed, dose end: 2 generation
rabbit [6] = conditions: Prenatal developmental toxicity study, new zealand white, Oral, Gavage/Intubation, dose end: 18 GD
rat [7] = conditions: Subchronic oral toxicity in rodents, other, Feed, dose end: 90 day, group: systemic, systemic / in life observation / food consumption / food consumption
mouse [8] = conditions: Carcinogenicity, cd1, Oral, Feed, dose end: 99 week, group: systemic
rat [9] = conditions: Subchronic oral toxicity in rodents, sprague dawley, Feed, dose end: 13 week
mouse [10] = conditions: Carcinogenicity; other; Oral; Feed; dose end: 21 month; group: systemic; systemic / pathology microscopic / liver / hypertrophy
rat [11] = conditions: Prenatal developmental toxicity study, sprague dawley, Oral, Gavage/Intubation, dose end: 15 GD
rat [12] = conditions: Prenatal developmental toxicity study; sprague dawley; Oral; Gavage/Intubation; dose end: 15 GD; group: developmental; developmental / developmental malformation / bone / absent
rabbit [13] = conditions: Prenatal developmental toxicity study, other, Oral, Gavage/Intubation, dose end: 18 GD
dog [14] = conditions: Chronic toxicity, beagle, Oral, Feed, dose end: 24 month, group: systemic
rat [15] = conditions: Multigenerational reproductive toxicity study, other, Oral, Feed, dose end: 2 generation
rat [16] = conditions: Combined chronic toxicity/carcinogenicity, wistar, Oral, Feed, dose end: 2 year, group: systemic
rat [17] = conditions: Prenatal developmental toxicity study, sprague dawley, Oral, Gavage/Intubation, dose end: 15 GD; remark: listed apart in the source
mouse [18] = conditions: Combined chronic toxicity/carcinogenicity, Oral, Feed, dose end: 2 year, group: systemic
[19] = systemic / clinical chemistry / cholesterol / cholesterol + systemic / in life observation / mortality / mortality + systemic / pathology …
[20] = systemic / pathology microscopic / adrenal gland / vacuolization + systemic / organ weight / thyroid gland / relative to body weight + …
[21] = systemic / hematology / heinz body / heinz body + systemic / organ weight / prostate / absolute
[22] = systemic / hematology / heinz body / heinz body + systemic / organ weight / prostate / absolute + systemic / clinical chemistry / alanine …
[23] = group: offspring, developmental / offspring survival late / lactation index / lactation index + developmental / offspring survival late / [other] / [other] + …
[24] = group: parental, systemic / in life observation / body weight / body weight gain + systemic / in life observation / food consumption / food consumption
[25] = group: parental, systemic / in life observation / body weight / body weight gain + systemic / in life observation / food consumption / food consumption + …
[26] = group: developmental, developmental / developmental malformation / bone / delayed ossification + developmental / developmental malformation / bone / full …
[27] = group: maternal, systemic / in life observation / body weight / body weight gain
[28] = group: maternal, systemic / in life observation / body weight / body weight gain + reproductive / reproductive performance / aborted / aborted + reproductive…
[29] = systemic / pathology microscopic / testes / hypertrophy + systemic / pathology microscopic / testes / vacuolization + systemic / pathology …
[30] = group: maternal, reproductive / reproductive performance / estrous cycle / corpora lutea
[31] = group: systemic, systemic / in life observation / body weight / body weight + systemic / in life observation / food consumption / food consumption + systemic…
[32] = group: systemic, systemic / organ weight / liver / nos
[33] = group: developmental, developmental / developmental malformation / bone / [other] + developmental / developmental malformation / bone / full supernumerary + …
[34] = group: maternal, systemic / in life observation / clinical signs / motor activity
[35] = group: maternal, systemic / in life observation / clinical signs / motor activity + systemic / in life observation / body weight / body weight gain
[36] = group: developmental, developmental / developmental malformation / bone / incomplete ossification + developmental / developmental malformation / bone / misshapen
[37] = group: developmental, developmental / developmental malformation / bone / incomplete ossification + developmental / developmental malformation / bone / misshapen…
[38] = systemic / clinical chemistry / alanine aminotransferase (alt/sgpt) / alanine aminotransferase (alt/sgpt) + systemic / clinical chemistry / …
[39] = group: offspring, developmental / offspring survival late / lactation index / lactation index + developmental / offspring survival late / viability index / …
[40] = group: parental, systemic / organ weight / ovary / relative to body weight + systemic / organ weight / ovary / absolute
[41] = group: reproductive, reproductive / reproductive performance / fertility / fertility
[42] = systemic / pathology microscopic / thyroid gland / adenoma + systemic / in life observation / body weight / body weight + systemic / organ …
[43] = group: developmental, developmental / developmental malformation / bladder / distended + developmental / developmental malformation / bone / supernumerary
[44] = group: maternal, reproductive / reproductive performance / resorptions / resorptions + systemic / in life observation / body weight / body weight gain
[45] = systemic / clinical chemistry / urea nitrogen / urea + systemic / clinical chemistry / creatinine / creatinine + systemic / organ weight / …

## CC(Cl)C(Cl)Cl (centres undefined) [1,1,2-Trichloropropane]
Rat [1]; [19]
  LOAEL: > 50 mg/kg/day
  NEL: 0.5 mg/kg/day
  NOAEL: ≥ 50 mg/kg/day
Rat [1]; systemic / in life observation / mortality / mortality
  LEL: 5 mg/kg/day

## CC(C)NC(=O)N1CC(=O)N(c2cc(Cl)cc(Cl)c2)C1=O [Iprodione]
Rat [2]; [20]
  LEL: 6.1 mg/kg/day
  NEL: < 6.1 mg/kg/day
Rat [2]; systemic / pathology microscopic / liver / hypertrophy + systemic / organ weight / liver / absolute + systemic / organ weight / liver / …
  LOAEL: 12.4 mg/kg/day
Rat [2]; systemic / pathology microscopic / liver / hypertrophy + systemic / pathology microscopic / adrenal gland / rarefaction + systemic / …
  NOAEL: 6.1 mg/kg/day
Dog [3]; [21]
  LEL: 24.9 mg/kg/day
  LOAEL: 24.9 mg/kg/day
Dog [3]; [22]
  NEL: 4.12 mg/kg/day
  NOAEL: 4.12 mg/kg/day
Dog [4]
  LEL: 180 mg/kg/day
  LOAEL: 180 mg/kg/day
  NEL: 60 mg/kg/day
  NOAEL: 60 mg/kg/day
Rat [5]; [23]
  LEL: 158 mg/kg/day
  LOAEL: 158 mg/kg/day
  NEL: 54.7 mg/kg/day
  NOAEL: 54.7 mg/kg/day
Rat [5]; [24]
  LEL: 54.7 mg/kg/day
  LOAEL: 54.7 mg/kg/day
Rat [5]; [25]
  NEL: 16.5 mg/kg/day
  NOAEL: 16.5 mg/kg/day
Rabbit [6]; [26]
  LEL: 200 mg/kg/day
  LOAEL: 200 mg/kg/day
  NEL: 60 mg/kg/day
  NOAEL: 60 mg/kg/day
Rabbit [6]; [27]
  LEL: 60 mg/kg/day
  LOAEL: 60 mg/kg/day
Rabbit [6]; [28]
  NEL: 20 mg/kg/day
  NOAEL: 20 mg/kg/day
Rat [7]
  LEL: 25 mg/kg/day
  LOAEL: > 50 mg/kg/day
  NEL: 7.5 mg/kg/day
  NOAEL: ≥ 50 mg/kg/day
Mouse [8]; systemic / pathology microscopic / testes / hypertrophy + systemic / pathology microscopic / testes / vacuolization
  LOAEL: 115 mg/kg/day
Mouse [8]; [29]
  LEL: 115 mg/kg/day
  NEL: 23 mg/kg/day
  NOAEL: 23 mg/kg/day
Rat [9]; [30]
  LEL: 184 mg/kg/day
  LOAEL: 184 mg/kg/day
  NEL: 89 mg/kg/day
  NOAEL: 89 mg/kg/day
Rat [9]; [31]
  LOAEL: 151 mg/kg/day
  NOAEL: 78 mg/kg/day
Rat [9]; [32]
  LEL: 89 mg/kg/day
  NEL: < 89 mg/kg/day

## CC(C)(C)C(=O)C(Oc1ccc(Cl)cc1)n1cncn1 (centres undefined) [Triadimefon]
Mouse [10]
  LEL: 19.6 mg/kg/day
  LOAEL: 19.6 mg/kg/day
  NEL: < 19.6 mg/kg/day
  NOAEL: < 19.6 mg/kg/day
Rat [11]; group: developmental, developmental / developmental malformation / bone / [other]
  LOAEL: 100 mg/kg/day
Rat [11]; [33]
  NEL: 25 mg/kg/day
  NOAEL: 50 mg/kg/day
Rat [11]; group: developmental, developmental / developmental malformation / bone / full supernumerary
  LEL: 50 mg/kg/day
Rat [11]; [34]
  LEL: 25 mg/kg/day
  LOAEL: 25 mg/kg/day
Rat [11]; [35]
  NEL: 10 mg/kg/day
  NOAEL: 10 mg/kg/day
Rat [12]
  LEL: 10 mg/kg/day
  LOAEL: 10 mg/kg/day
  NEL: 5 mg/kg/day
  NOAEL: 5 mg/kg/day
Rabbit [13]; [36]
  LEL: 50 mg/kg/day
  LOAEL: 50 mg/kg/day
Rabbit [13]; [37]
  NEL: 20 mg/kg/day
  NOAEL: 20 mg/kg/day
Rabbit [13]; [27]
  LEL: 120 mg/kg/day
  LOAEL: 120 mg/kg/day
  NEL: 50 mg/kg/day
  NOAEL: 50 mg/kg/day
Dog [14]; [38]
  LOAEL: 47 mg/kg/day
  NOAEL: 11.4 mg/kg/day
Dog [14]; systemic / clinical chemistry / alkaline phosphatase (alp/alk) / alkaline phosphatase (alp/alk) + systemic / clinical chemistry / …
  NEL: 3.03 mg/kg/day
Dog [14]; systemic / pathology microscopic / testes / infiltration cellular / epididymides
  LEL: 11.4 mg/kg/day
Rat [15]; [39]
  LEL: 90 mg/kg/day
  LOAEL: 90 mg/kg/day
  NEL: 2.5 mg/kg/day
  NOAEL: 2.5 mg/kg/day
Rat [15]; group: parental, systemic / organ weight / ovary / relative to body weight + systemic / in life observation / body weight / body weight + systemic / organ …
  NOAEL: 2.5 mg/kg/day
Rat [15]; group: parental, systemic / organ weight / ovary / relative to body weight + systemic / organ weight / epididymis / relative to body weight
  LOAEL: 90 mg/kg/day
Rat [15]; [40]
  LEL: 2.5 mg/kg/day
  NEL: < 2.5 mg/kg/day
Rat [15]; [41]
  LEL: 90 mg/kg/day
  LOAEL: 90 mg/kg/day
  NEL: 2.5 mg/kg/day
  NOAEL: 2.5 mg/kg/day
Rat [16]; systemic / hematology / leukocyte (wbc) count differential / leukocyte (wbc) + systemic / organ weight / liver / nos
  LEL: 22.5 mg/kg/day
Rat [16]; systemic / hematology / leukocyte (wbc) count differential / leukocyte (wbc) + systemic / organ weight / liver / nos + systemic / clinical …
  NEL: 3.6 mg/kg/day
Rat [16]; [42]
  LOAEL: 114 mg/kg/day
  NOAEL: 16.4 mg/kg/day
Rat [17]; [43]
  LEL: 90 mg/kg/day
  LOAEL: 90 mg/kg/day
  NEL: 30 mg/kg/day
  NOAEL: 30 mg/kg/day
Rat [17]; [44]
  LEL: 90 mg/kg/day
  LOAEL: 90 mg/kg/day
  NEL: 30 mg/kg/day
  NOAEL: 30 mg/kg/day
Mouse [18]; [38]
  NOAEL: 40 mg/kg/day
Mouse [18]; systemic / clinical chemistry / alanine aminotransferase (alt/sgpt) / alanine aminotransferase (alt/sgpt) + systemic / in life observation…
  LOAEL: 240 mg/kg/day
Mouse [18]; [45]
  LEL: 6.67 mg/kg/day
  NEL: < 6.67 mg/kg/day
